Data as given in article PMC8144059 (Drug metabolism and pharmacokinetics, 2021).

Target: CYP3A4.1 (WT) (Homo sapiens, UniProt P08684)
Settings: Figure 2, CYP3A4.1, TST 10–500 μM, n=5

CYP3A4.1 (WT), sequence (P08684 2-503): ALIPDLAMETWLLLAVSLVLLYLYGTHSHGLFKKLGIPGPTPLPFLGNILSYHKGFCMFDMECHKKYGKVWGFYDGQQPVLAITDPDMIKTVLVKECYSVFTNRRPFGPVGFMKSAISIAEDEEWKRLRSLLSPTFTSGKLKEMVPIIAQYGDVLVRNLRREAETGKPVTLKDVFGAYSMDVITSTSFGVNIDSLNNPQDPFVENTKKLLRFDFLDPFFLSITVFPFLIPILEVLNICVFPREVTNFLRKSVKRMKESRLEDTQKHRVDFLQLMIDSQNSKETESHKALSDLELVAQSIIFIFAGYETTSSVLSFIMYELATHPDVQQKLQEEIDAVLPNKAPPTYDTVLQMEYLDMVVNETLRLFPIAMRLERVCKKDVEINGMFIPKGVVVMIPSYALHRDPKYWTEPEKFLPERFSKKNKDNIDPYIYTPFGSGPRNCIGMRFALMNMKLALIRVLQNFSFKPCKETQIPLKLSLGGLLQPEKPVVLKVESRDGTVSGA

OC(Cn1cncn1)(Cn1cncn1)c1ccc(F)cc1F [FCZ, fluconazole]
Inhibition of CYP3A4 activity (TST metabolism): inhibited CYP3A4 activity in a concentration-dependent manner
